Test results reported in paper PMC11239005, “Preclinical studies of RA475, a guanidine-substituted spirocyclic candidate RPN13/ADRM1 inhibitor for treatment of ovarian cancer” (PLOS ONE, 2024).
Several values for one entry are separate records, joined by “and”; a condition that tells them apart may be missing. Identical values can stand only once. Like-named read-outs stand apart in the source and are kept apart here.

Assay: Single dose plasma pharmacokinetics in CD1 mice
Format: in vivo, mouse
Method: For single dose pharmacokinetic studies, plasma samples (40 μL) were mixed with 200 μL of a water-methanol (1:9, v/v) containing the internal standard elacridar at 80 ng/mL. After mixing by pipetting and centrifuging for 4 min at 5500 x g, 0.25 μL of the supernatant was injected into LC-MS/MS system. […] Mobile phase A was acetonitrile/water (5:95, v/v) containing 1% formic acid, and mobile phase B was acetonitrile containing 0.1% formic acid. The gradient was initiated with mobile phase B at 10% with a flow rate of 0.4 mL/min, increased to 100% over 0.9 min and then and held for 0.1 min, and returned back to 10% mobile phase B and allowed to equilibrate until 2.2 min. An SCIEX 5000 triple quadrupole mass spectrometer operated in positive electrospray ionization mode was used for the detection of RA475. The lower limit of quantitation (LLOQ) in plasma was 10 ng/mL.
Pharmacokinetic parameters were calculated from mean concentration-time data using non-compartmental methods in Phoenix WinNonlin version 8.3 (Certara, Princeton, NJ). Concentrations after the time 0 sample that were below the LLOQ were imputed with ½ that value (1 ng/mL). Any concentration that was determined to be an outlier by the Grubbs’s outlier test were excluded from analysis. The maximum plasma concentration (Cmax) and time to Cmax (Tmax) were the observed values. The AUClast was calculated using the log-linear trapezoidal method. AUC was extrapolated to infinity (AUCINF) by dividing the last quantifiable concentration by the terminal disposition rate constant (λz). The λz was determined from at least 3 points on the slope of the terminal phase of the concentration-time profile. The terminal half-life (T1/2) was determined by dividing 0.693 by λz. Clearance (Cl) or apparent Cl (Cl/F) was calculated by dividing the dose administered by AUCINF. Volume of distribution (V) or apparent V (V/F) was calculated by dividing Cl or Cl/F by λz. […] The oral and IP bioavailability was calculated as: F(%)=DoseIV×AUCINFPO/DosePO×[…].100%
The Method of Bailer was used to estimate the variance of AUC given the calculated variance of the mean concentration at each time point. A pairwise comparison utilizing Z test was used to determine whether there was a significant difference between RA475 exposures as expressed by AUC last. Additionally, the Up284 exposure was truncated to 8 h and compared to the same route of administration and exposure as RA475. In all cases, p < 0.05 was considered statistically significant.
CD1 (n = 4 per time point and condition; 8 weeks old, 26.8±3g) mice were administered a single dose of RA475, either IV (10 mg/kg), PO (40 mg/kg), or IP (40 mg/kg), and thereafter serial blood plasma samples were analyzed for RA475 levels by LC–MS/MS. The animals were randomly assigned to the treatment groups (S9 Table) and fasted for 4 h before dosing. Eight time points for IV and IP (0.083, 0.25, 0.5, 1, 2, 4, 6, and 8 h) and seven time points for PO (0.25, 0.5, 1, 2, 4, 6, and 8) administration were set for this pharmacokinetic study. Mice were injected IP with 2,2,2-tribromoethanol at the dose of 150 mg/kg prior to drawing the blood in microtainers containing K3EDTA via retro-orbital bleeding. Blood samples were centrifuged 10 min at 3000 rpm. All samples were immediately processed, flash-frozen and stored at -70°C until subsequent analysis. No obvious adverse effects were observed during this PK study. The average RA475 plasma concentrations data for IV, IP, and PO dosed groups (S10–S12 Tables) is graphically presented in Fig 4, and may be compared to published data for Up284 [37]. Pharmacokinetic parameters were calculated from mean concentration-time data using non-compartmental methods in Phoenix WinNonlin version 8.3 (Certara, Princeton, NJ) (S13 Table). Using the Method of Bailer, there was no difference in dose normalized AUClast by any route of administration of RA475.

[1] = male, CD1, mouse, plasma, ip, 40 mg/kg, IP 40 mg/Kg
[2] = male, CD1, mouse, plasma, po, 40 mg/kg, PO 40 mg/Kg
[3] = male, CD1, mouse, plasma, IP 40 mg/kg
[4] = male, CD1, mouse, plasma, IV 10 mg/kg
[5] = male, CD1, mouse, plasma, PO 40 mg/kg

Cl.Cl.N#Cc1ccc(/C=C2/C(=O)/C(=C/c3ccc(C#N)cc3)C23CCN(C(=N)N)CC3)cc1 [RA475, 1,3-bis((E)-4-cyanobenzylidene)-2-oxo-7-azaspiro[3.5]nonane-7-carboximidamide dihydrochloride]
concentration at 360 min (CD1, mouse, plasma, ip, 40 mg/kg, IP 40 mg/Kg, 360 min, read-out: Plasma concentration, Group A-D): 327 ng/mL | bioavailability (CD1, mouse, plasma, IP 40 mg/kg): 103% | bioavailability (CD1, mouse, plasma, PO 40 mg/kg): 1.1% | Plasma concentration, Group A-D (IP 40 mg/Kg, 240 min, 40 mg/kg): 484 ng/mL and 577 ng/mL and 614 ng/mL | Plasma concentration, Group A-D (IP 40 mg/Kg, 480 min, 40 mg/kg): 118 ng/mL and 174 ng/mL and 125 ng/mL | Plasma concentration, Group A-D (PO 40 mg/Kg, 30 min, 40 mg/kg): 60 ng/mL and 57 ng/mL and 52 ng/mL | Plasma concentration, Group A-D (PO 40 mg/Kg, 60 min, 40 mg/kg): 33 ng/mL and 35 ng/mL and 44 ng/mL | Plasma concentration, Mean (PO 40 mg/Kg, 240 min): BQL | Plasma concentration, Mean (PO 40 mg/Kg, 360 min): BQL | Plasma concentration, Group A-D (PO 40 mg/Kg, 360 min, LLOQ 10 ng/mL): BQL | Plasma concentration, Mean (PO 40 mg/Kg, 480 min): BQL | Plasma concentration, Group A-D (PO 40 mg/Kg, 480 min, LLOQ 10 ng/mL): BQL | dose-normalized Cmax, fold higher than Up284 (RA475 vs Up284): 2.3 fold | concentration at 15 min [1]: 11500 ng/mL | concentration at 30 min (male, CD1, mouse, plasma, ip, 40 mg/kg, IP 40 mg/Kg, 30 min, read-out: Plasma concentration, Mean): 9350 ng/mL | concentration at 60 min (male, CD1, mouse, plasma, ip, 40 mg/kg, IP 40 mg/Kg, 60 min, read-out: Plasma concentration, Mean): 3580 ng/mL | concentration at 120 min [1]: 969 ng/mL | concentration at 240 min (male, CD1, mouse, plasma, ip, 40 mg/kg, IP 40 mg/Kg, 240 min, read-out: Plasma concentration, Group A-D): 356 ng/mL | concentration at 240 min (male, CD1, mouse, plasma, ip, 40 mg/kg, IP 40 mg/Kg, 240 min, read-out: Plasma concentration, Mean): 508 ng/mL | concentration at 360 min (male, CD1, mouse, plasma, ip, 40 mg/kg, IP 40 mg/Kg, 360 min, read-out: Plasma concentration, Mean): 125 ng/mL | concentration at 480 min (male, CD1, mouse, plasma, ip, 40 mg/kg, IP 40 mg/Kg, 480 min, read-out: Plasma concentration, Group A-D): 105 ng/mL | concentration at 480 min (male, CD1, mouse, plasma, ip, 40 mg/kg, IP 40 mg/Kg, 480 min, read-out: Plasma concentration, Mean): 131 ng/mL | concentration at 15 min [2]: 141 ng/mL | concentration at 30 min (male, CD1, mouse, plasma, po, 40 mg/kg, PO 40 mg/Kg, 30 min, read-out: Plasma concentration, Group A-D): 69 ng/mL | concentration at 30 min (male, CD1, mouse, plasma, po, 40 mg/kg, PO 40 mg/Kg, 30 min, read-out: Plasma concentration, Mean): 60 ng/mL | concentration at 60 min (male, CD1, mouse, plasma, po, 40 mg/kg, PO 40 mg/Kg, 60 min, read-out: Plasma concentration, Group A-D): 29 ng/mL | concentration at 60 min (male, CD1, mouse, plasma, po, 40 mg/kg, PO 40 mg/Kg, 60 min, read-out: Plasma concentration, Mean): 35 ng/mL | concentration at 120 min [2]: 20 ng/mL | concentration at 240 min (male, CD1, mouse, plasma, po, 40 mg/kg, PO 40 mg/Kg, 240 min, LLOQ 10 ng/mL, read-out: Plasma concentration, Group A-D): 20 ng/mL | AUC(0-t) [3]: 11300 ng·h/mL | Cmax [3]: 11500 ng/mL | Tmax [3]: 15 min | AUC(0-inf) [4]: 2780 ng·h/mL | AUC(0-t) [4]: 2730 ng·h/mL | Cmax [4]: 10500 ng/mL | half-life [4]: 126 min | AUC(0-inf) [5]: 139 ng·h/mL | AUC(0-t) [5]: 118 ng·h/mL | Cmax [5]: 142 ng/mL | Tmax [5]: 15 min | half-life [5]: 96 min | CL/F (male, CD1, mouse, plasma, PO 40 mg/kg, read-out: Cl or Cl/F (converted)): 4810 mL/min/kg | Tmax (mouse, plasma, IV 10 mg/kg, male CD1 mice): 4.98 min | Cl or Cl/F (plasma, IV 10 mg/kg): 3.6 mL/min/kg | V or V/F (plasma, IV 10 mg/kg): 10.9 L/kg | V or V/F (plasma, PO 40 mg/kg): 668.1 L/kg
